Assay results published in article PMC10763615, “Identification and engineering of potent cyclic peptides with selective or promiscuous binding through biochemical profiling and bioinformatic data analysis” (RSC Chemical Biology, 2023).
Read-outs that look alike come from different tables or passages of the source.

What was measured:
[1] = target: T1, FGF-R1C ECD (Homo sapiens, UniProt P11362); assay: biochemical; assay type: binding; set-up: DNA constructs for the extracellular domain (ECD) of human FGF-; HPC4 (C); made in house; host or cells: HEK 293-6E
T1 sequence (P11362 22-376 limits assumed): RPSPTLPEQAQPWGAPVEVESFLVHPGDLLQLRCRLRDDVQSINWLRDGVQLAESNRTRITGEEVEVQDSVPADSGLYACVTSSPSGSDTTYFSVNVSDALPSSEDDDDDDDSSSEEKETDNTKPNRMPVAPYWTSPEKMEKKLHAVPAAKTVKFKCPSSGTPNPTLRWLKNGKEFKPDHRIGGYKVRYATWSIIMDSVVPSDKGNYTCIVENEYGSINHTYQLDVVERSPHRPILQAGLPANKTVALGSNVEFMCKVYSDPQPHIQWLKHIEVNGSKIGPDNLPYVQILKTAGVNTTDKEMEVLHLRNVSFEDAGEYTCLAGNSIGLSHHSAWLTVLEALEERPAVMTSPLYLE
Outline: (§1)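 Streptavidin biosensors carrying biotinylated FGF receptor ECD were immersed in peptide (~1 μM for crude single-point runs, a concentration series for purified peptides) and then in peptide-free buffer. KD was obtained by fitting the BLI association and dissociation curves.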

[2] = target: T2, FGF-R3C ECD (Homo sapiens, UniProt P22607); assay: biochemical; assay type: binding; set-up: DNA constructs for the extracellular domain (ECD) of human FGF-; HPC4 (C); made in house; host or cells: HEK 293-6E
T2 sequence (P22607 23-375 limits assumed): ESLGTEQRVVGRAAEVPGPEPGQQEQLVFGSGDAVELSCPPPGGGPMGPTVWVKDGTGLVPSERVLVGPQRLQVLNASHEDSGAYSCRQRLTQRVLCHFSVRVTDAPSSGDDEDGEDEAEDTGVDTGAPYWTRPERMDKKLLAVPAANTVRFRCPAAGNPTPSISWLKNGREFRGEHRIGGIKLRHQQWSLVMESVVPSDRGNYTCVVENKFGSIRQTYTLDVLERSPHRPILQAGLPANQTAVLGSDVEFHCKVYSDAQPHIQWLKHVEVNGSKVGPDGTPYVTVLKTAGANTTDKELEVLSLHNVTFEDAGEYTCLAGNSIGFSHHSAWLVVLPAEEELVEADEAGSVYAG
Outline: as §1

[3] = target: T3, FGF-R4 ECD (Homo sapiens, UniProt P22455); assay: single concentration BLI of crude peptides; assay type: binding; conditions: read-out: KD (4)
T3 construct: DNA constructs for the extracellular domain (ECD) of human FGF-; HPC4 (C); made in house; host or cells: HEK 293-6E
T3 sequence (P22455 22-369 limits assumed): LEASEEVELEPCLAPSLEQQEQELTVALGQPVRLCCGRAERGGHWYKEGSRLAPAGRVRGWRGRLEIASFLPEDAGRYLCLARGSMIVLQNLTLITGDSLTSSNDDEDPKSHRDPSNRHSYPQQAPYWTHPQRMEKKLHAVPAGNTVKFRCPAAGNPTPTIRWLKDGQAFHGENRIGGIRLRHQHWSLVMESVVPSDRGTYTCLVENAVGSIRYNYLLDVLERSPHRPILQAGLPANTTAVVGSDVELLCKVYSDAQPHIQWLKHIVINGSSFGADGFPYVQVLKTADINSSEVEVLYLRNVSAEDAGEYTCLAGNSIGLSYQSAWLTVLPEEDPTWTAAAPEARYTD
Outline: as §1

[4] = target: T1, FGF-R1C ECD; assay: biochemical
Description: (§2) KD affinity binding measurements were obtained by biolayer interferometry (BLI) instruments (Fortebio Octet HTX, or Sartorius Octet RH16 using either 8 or 16 channel mode.
(§3) For single concentration binding experiments, 50 μM peptide stocks in folding buffer were diluted 1:50 in mRNA display selection buffer (PBS pH7.4 supplemented with 0.05% Tween-20 and 0.01% BSA) in either a 96 well black plate, or a 384 well tilted bottom microplate (ForteBio). Biotinylated FGF-R protein was loaded onto Streptavidin-functionalised biosensors (ForteBio) and immersed into ~1 μM peptide to obtain association kinetics curves. Dissociation kinetics curves were obtained by subsequent immersion of ligand-associated loaded sensors into a 1:50 dilution of folding buffer in mRNA display selection buffer. Fitted KD data was adjusted for concentration as determined by UPLC-CAD.
(§4) For accurate multi-concentration KD determination, dilution series of each peptide were made, and association and dissociation kinetics curves were obtained as above for each concentration to fit a multi-point KD binding model. Data collection and analysis was performed using the Octet Instrument Control […]
(§5) concentration assay kinetics curves shown in supplementary Figure S 19-24.

[5] = target: T2, FGF-R3C ECD; assay: biochemical
Description: as §2, §3, §4, §5

[6] = target: T3, FGF-R4 ECD; assay: multi-concentration BLI of purified peptides; assay type: binding
Description: as §2, §3, §4, §5

[7] = crude NNK peptides, single concentration BLI (Table S3)
[8] = purified trimer-18 library peptides

Row | SMILES | Kd [1] [nM] | Kd [2] [nM] | Kd [3, 7] [nM] | Kd [4] [nM] | Kd [5] [nM] | Kd ([6]; purified NNK library peptides) [nM] | Kd ([3]; crude T18 selection 1 (1:1:1) peptides, single concentration BLI (Table S4)) [nM] | Kd [6, 8] [nM]
1 | CC[C@H](C)[C@@H]1NC(=O)[C@H](CCCCN)NC(=O)[C@H](Cc2ccc(O)cc2)NC(=O)[C@H]([C@@H](C)CC)NC(=O)[C@H](CO)NC(=O)[C@H](C(C)C)NC(=O)[C@H](CC(C)C)NC(=O)[C@@H](NC(=O)[C@H](CCSC)NC(C)=O)CSSC[C@@H](C(=O)NCC(=O)N[C@@H](CO)C(=O)NCC(=O)N[C@@H](CO)C(=O)N[C@@H](CC(=O)O)C(=O)N[C@@H](Cc2ccc(O)cc2)C(=O)N[C@@H](CCCCN)C(=O)N[C@@H](CC(=O)O)C(=O)N[C@@H](CC(=O)O)C(=O)N[C@@H](CC(=O)O)C(=O)N[C@@H](CC(=O)O)C(=O)N[C@@H](CCCCN)C(N)=O)NC(=O)[C@H]([C@@H](C)O)NC(=O)[C@H](CCCNC(=N)N)NC(=O)[C@H](CCSC)NC1=O [4.1] | > 10000 | 6120 | 193 | > 1000 | > 1000 | > 1000 |  | 
2 | CSCC[C@H](NC(C)=O)C(=O)N[C@H]1CSSC[C@@H](C(=O)NCC(=O)N[C@@H](CO)C(=O)NCC(=O)N[C@@H](CO)C(=O)N[C@@H](CC(=O)O)C(=O)N[C@@H](Cc2ccc(O)cc2)C(=O)N[C@@H](CCCCN)C(=O)N[C@@H](CC(=O)O)C(=O)N[C@@H](CC(=O)O)C(=O)N[C@@H](CC(=O)O)C(=O)N[C@@H](CC(=O)O)C(=O)N[C@@H](CCCCN)C(N)=O)NC(=O)[C@H](CCCNC(=N)N)NC(=O)[C@H](CC(C)C)NC(=O)[C@H](CCCCN)NC(=O)[C@H]([C@@H](C)O)NC(=O)[C@H](C(C)C)NC(=O)[C@H](CCCCN)NC(=O)[C@H](Cc2ccc(O)cc2)NC(=O)[C@H](Cc2c[nH]c3ccccc23)NC(=O)[C@H]([C@@H](C)O)NC(=O)[C@H](C(C)C)NC1=O [4.4] | > 10000 | > 10000 | 57 | > 1000 | > 1000 | > 1000 |  | 
3 | CSCC[C@H](NC(C)=O)C(=O)N[C@H]1CSSC[C@@H](C(=O)NCC(=O)N[C@@H](CO)C(=O)NCC(=O)N[C@@H](CO)C(=O)N[C@@H](CCC(=O)O)C(=O)N[C@@H](CCC(=O)O)C(=O)NCC(=O)N[C@@H](CO)C(=O)NCC(=O)N[C@@H](CO)C(=O)N[C@@H](CC(=O)O)C(=O)N[C@@H](Cc2ccc(O)cc2)C(=O)N[C@@H](CCCCN)C(=O)N[C@@H](CC(=O)O)C(=O)N[C@@H](CC(=O)O)C(=O)N[C@@H](CC(=O)O)C(=O)N[C@@H](CC(=O)O)C(=O)N[C@@H](CCCCN)C(N)=O)NC(=O)[C@H](CCCNC(=N)N)NC(=O)[C@H](CCCNC(=N)N)NC(=O)[C@H](Cc2c[nH]c3ccccc23)NC(=O)[C@H](CC(C)C)NC(=O)[C@H](CCCCN)NC(=O)[C@H](Cc2ccc(O)cc2)NC(=O)[C@H](Cc2ccc(O)cc2)NC(=O)[C@H](Cc2ccc(O)cc2)NC(=O)[C@H](CC(C)C)NC(=O)[C@H]([C@@H](C)O)NC(=O)[C@H]([C@@H](C)O)NC1=O [4.9] | 699 | 2250 |  | > 1000 | > 1000 |  | 1 | > 1000
4 | CSCC[C@H](NC(C)=O)C(=O)N[C@H]1CSSC[C@@H](C(=O)NCC(=O)N[C@@H](CO)C(=O)NCC(=O)N[C@@H](CO)C(=O)N[C@@H](CC(=O)O)C(=O)N[C@@H](Cc2ccc(O)cc2)C(=O)N[C@@H](CCCCN)C(=O)N[C@@H](CC(=O)O)C(=O)N[C@@H](CC(=O)O)C(=O)N[C@@H](CC(=O)O)C(=O)N[C@@H](CC(=O)O)C(=O)N[C@@H](CCCCN)C(N)=O)NC(=O)[C@H](CCCNC(=N)N)NC(=O)[C@H](CCCNC(=N)N)NC(=O)[C@H](Cc2c[nH]cn2)NC(=O)[C@H](CO)NC(=O)[C@H](CC(C)C)NC(=O)[C@H](CC(C)C)NC(=O)[C@H](Cc2ccc(O)cc2)NC(=O)[C@H](Cc2ccc(O)cc2)NC(=O)[C@H](Cc2ccc(O)cc2)NC(=O)[C@H](CC(C)C)NC(=O)[C@H](Cc2c[nH]cn2)NC(=O)[C@H](CCC(=O)O)NC1=O [4.23] |  |  |  | > 1000 | > 1000 |  |  | 3
5 | CSCC[C@H](NC(C)=O)C(=O)N[C@H]1CSSC[C@@H](C(=O)NCC(=O)N[C@@H](CO)C(=O)NCC(=O)N[C@@H](CO)C(=O)N[C@@H](CC(=O)O)C(=O)N[C@@H](Cc2ccc(O)cc2)C(=O)N[C@@H](CCCCN)C(=O)N[C@@H](CC(=O)O)C(=O)N[C@@H](CC(=O)O)C(=O)N[C@@H](CC(=O)O)C(=O)N[C@@H](CC(=O)O)C(=O)N[C@@H](CCCCN)C(N)=O)NC(=O)[C@@H]2CCCN2C(=O)[C@H](CCCNC(=N)N)NC(=O)[C@H](Cc2c[nH]c3ccccc23)NC(=O)[C@@H]2CCCN2C(=O)[C@H](CCC(=O)O)NC(=O)[C@H](Cc2c[nH]cn2)NC(=O)[C@H](Cc2c[nH]c3ccccc23)NC(=O)[C@H](Cc2ccc(O)cc2)NC(=O)[C@H](C)NC(=O)[C@H](CCCCN)NC(=O)[C@H]([C@@H](C)O)NC(=O)[C@H](Cc2ccc(O)cc2)NC1=O [4.24] |  |  |  | > 1000 | > 1000 |  |  | > 1000
6 | CSCC[C@H](NC(C)=O)C(=O)N[C@H]1CSSC[C@@H](C(=O)NCC(=O)N[C@@H](CO)C(=O)NCC(=O)N[C@@H](CO)C(=O)N[C@@H](CC(=O)O)C(=O)N[C@@H](Cc2ccc(O)cc2)C(=O)N[C@@H](CCCCN)C(=O)N[C@@H](CC(=O)O)C(=O)N[C@@H](CC(=O)O)C(=O)N[C@@H](CC(=O)O)C(=O)N[C@@H](CC(=O)O)C(=O)N[C@@H](CCCCN)C(N)=O)NC(=O)[C@H](CCC(N)=O)NC(=O)[C@H](CCCCN)NC(=O)[C@H](Cc2ccccc2)NC(=O)[C@H](CC(C)C)NC(=O)[C@H](CC(C)C)NC(=O)[C@H](Cc2ccc(O)cc2)NC(=O)[C@H](Cc2ccc(O)cc2)NC(=O)[C@H](Cc2ccc(O)cc2)NC(=O)[C@H](CC(C)C)NC(=O)[C@H](Cc2c[nH]cn2)NC(=O)[C@H](CCCCN)NC(=O)[C@H](CC(N)=O)NC1=O [4.25] |  |  |  | > 1000 | > 1000 |  |  | 3
